Values of other authors in patent publication US20260199305A1, “LONG-ACTING ORAL PHARMACEUTICAL COMPRISING HYPOXIA-INDUCIBLE FACTOR PROLYL HYDROLASE INHIBITOR AND USE THEREOF” (Kind Pharmaceutical, priority 2023, published 2026).
Like-named read-outs stand apart in the source and are kept apart here.

Conditions: cited from earlier work

Cn1c(=O)cc(N2CCC[C@@H](N)C2)n(Cc2cc(F)ccc2C#N)c1=O [Trelagliptin]
elimination half-life (t½) (literature value (J Diabetes Investig 2018)): 38.44 to 54.26 h

O=C(O)CNC(=O)c1ncc(-c2cccc(Cl)c2)cc1O [Vadadustat]
t½ (literature value): 4.7 to 9.1 h

O=C(O)CNC(=O)c1c(O)c2ccccc2n(OCC2CC2)c1=O [Desidustat]
t½ (literature value): 6 to 15 h

O=C(O)CNC(=O)c1c(O)cc(CCc2ccccc2)n2ncnc12 [Enarodustat]
t½ (literature value): 8.2 to 8.7 h

Cc1nc(C(=O)NCC(=O)O)c(O)c2ccc(Oc3ccccc3)cc12 [Roxadustat]
t½ (literature value): 12 to 15 h

O=C(O)CNC(=O)C1C(=O)N(C2CCCCC2)C(=O)N(C2CCCCC2)C1=O [Daprodustat]
t½ (in patients with chronic kidney disease anemia, literature): ~ 7 hours

O=c1c(-n2ccnn2)c[nH]n1-c1cc(N2CCOCC2)ncn1 [Molidustat]
t½ (literature value): 4 to 10 h
